According to the supplement of paper PMC10307832:

How the values were obtained:
Test in all cases: relative viability (nuclei count vs DMSO), 5 days (fraction); higher = more cells survive
AZ505 + Alpelisib = compound: C1CCC(CC1)N(CCNCCC2=C3C(=C(C=C2)O)NC(=O)CO3)C(=O)CCNCCC4=CC(=C(C=C4)Cl)Cl [AZ505] + Cc1nc(NC(=O)N2CCC[C@H]2C(N)=O)sc1-c1ccnc(C(C)(C)C(F)(F)F)c1 [Alpelisib] (partner 2 µM)
Procedure, shortened: (§1)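 One day after seeding in 1536-well plates, lung cancer cell lines were dosed by pin tool. Dosing was either single-drug or a fixed anchor-drug dose plus five library-drug doses (not always all listed) in √10 steps. After 5 days, nuclei were stained in one fix-and-stain step and counted on 4× images, and relative viability is the nuclei count of treated wells over that of vehicle wells, given as the median of duplicate plates.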

AZ505 + Phenformin = compound: C1CCC(CC1)N(CCNCCC2=C3C(=C(C=C2)O)NC(=O)CO3)C(=O)CCNCCC4=CC(=C(C=C4)Cl)Cl [AZ505] + N=C(N)NC(=N)NCCc1ccccc1 [Phenformin] (partner 250 µM)
Procedure, shortened: as §1

AZ505 + Trametinib = compound: C1CCC(CC1)N(CCNCCC2=C3C(=C(C=C2)O)NC(=O)CO3)C(=O)CCNCCC4=CC(=C(C=C4)Cl)Cl [AZ505] + CC(=O)Nc1cccc(-n2c(=O)n(C3CC3)c(=O)c3c(Nc4ccc(I)cc4F)n(C)c(=O)c(C)c32)c1 [Trametinib] (partner 0.02 µM)
Procedure, shortened: as §1

Dactolisib + Vorinostat = compound: Cn1c(=O)n(-c2ccc(C(C)(C)C#N)cc2)c2c3cc(-c4cnc5ccccc5c4)ccc3ncc21 [Dactolisib] + O=C(CCCCCCC(=O)Nc1ccccc1)NO [Vorinostat] (partner 1 µM)
Procedure, shortened: as §1

Row | Cell Line | relative viability (AZ505 + Alpelisib; first compound 0.08 µM) | relative viability (AZ505 + Alpelisib; first compound 0.8 µM) | relative viability (AZ505 + Alpelisib; first compound 2.53 µM) | relative viability (AZ505 + Alpelisib; first compound 8 µM) | relative viability (AZ505 + Phenformin; first compound 0.08 µM) | relative viability (AZ505 + Phenformin; first compound 0.8 µM) | relative viability (AZ505 + Phenformin; first compound 2.53 µM) | relative viability (AZ505 + Phenformin; first compound 8 µM) | relative viability (AZ505 + Trametinib; first compound 0.08 µM) | relative viability (AZ505 + Trametinib; first compound 0.253 µM) | relative viability (AZ505 + Trametinib; first compound 0.8 µM) | relative viability (AZ505 + Trametinib; first compound 2.53 µM) | relative viability (AZ505 + Trametinib; first compound 8 µM) | relative viability (Dactolisib + Vorinostat; first compound 0.002 µM) | relative viability (Dactolisib + Vorinostat; first compound 0.006325 µM) | relative viability (Dactolisib + Vorinostat; first compound 0.02 µM) | relative viability (Dactolisib + Vorinostat; first compound 0.06325 µM) | relative viability (Dactolisib + Vorinostat; first compound 0.2 µM) | relative viability (AZ505 + Alpelisib; first compound 0.253 µM) | relative viability (AZ505 + Phenformin; first compound 0.253 µM)
1 | NCI-H23 | 0.617 | 0.653 | 0.644 | 0.845 | 0.731 | 0.741 | 0.759 | 0.821 | 0.246 | 0.414 | 0.427 | 0.442 | 0.347 | 0.512 | 0.49 | 0.462 | 0.18 | 0.176 |  | 
2 | NCI-H322M | 0.757 | 0.688 | 0.844 | 0.79 | 0.75 | 0.718 | 0.728 | 0.826 | 0.501 |  | 0.521 | 0.491 | 0.486 | 0.941 | 0.862 | 0.734 | 0.599 | 0.609 | 0.774 | 0.756
3 | NCI-H358 | 0.699 | 0.859 | 0.729 | 0.795 | 0.356 | 0.351 | 0.24 | 0.364 | 0.113 | 0.136 | 0.112 | 0.119 | 0.13 | 0.68 | 0.652 | 0.503 | 0.154 | 0.165 | 0.741 | 0.346
4 | NCI-H441 | 0.721 | 0.599 | 0.671 | 0.761 | 0.742 | 0.905 | 0.907 | 0.786 | 0.413 | 0.385 | 0.536 | 0.568 | 0.465 | 0.841 | 0.675 | 0.802 | 0.276 | 0.34 | 0.698 | 0.814
5 | NCI-H460 | 0.458 | 0.485 | 0.507 | 0.469 | 0.448 | 0.48 | 0.482 | 0.551 | 0.218 | 0.174 | 0.065 | 0.126 | 0.0757 | 0.643 | 0.659 | 0.723 | 0.127 | 0.173 | 0.559 | 0.534
6 | NCI-H520 | 0.92 | 0.862 | 0.84 | 0.99 | 0.556 | 0.683 | 0.825 | 0.529 | 0.766 | 0.638 | 0.661 | 0.639 | 0.699 | 0.747 | 0.596 | 0.416 | 0.212 | 0.151 | 0.829 | 0.49
7 | NCI-H596 | 0.483 | 0.49 | 0.626 | 0.52 | 0.619 | 0.859 | 0.719 | 0.754 | 0.721 |  | 0.593 | 0.648 | 0.674 | 0.48 | 0.577 | 0.521 | 0.313 | 0.222 | 0.453 | 0.833
8 | NCI-H647 | 1.04 | 1.05 | 1.07 | 1.08 | 0.574 | 0.479 | 0.488 | 0.702 | 0.478 | 0.509 | 0.404 | 0.379 | 0.467 | 0.369 | 0.308 | 0.265 | 0.123 | 0.0977 | 1.46 | 0.314
9 | NCI-H650 | 1.03 | 1.03 | 1.14 | 1.21 | 0.443 | 0.468 | 0.509 | 0.457 | 0.98 | 0.841 | 0.924 | 0.893 | 1.15 | 0.414 | 0.501 | 0.469 | 0.306 | 0.179 | 1.31 | 0.389
10 | NCI-H661 | 0.666 | 0.738 | 0.81 | 0.907 | 0.285 | 0.288 | 0.328 | 0.296 | 0.603 | 0.596 | 0.537 | 0.577 | 0.541 | 0.773 | 0.766 | 0.71 | 0.455 | 0.391 | 0.493 | 0.261
11 | NCI-H727 | 0.535 | 0.505 | 0.598 | 0.694 | 0.651 | 0.525 |  | 0.613 | 0.418 | 0.411 | 0.365 | 0.391 | 0.358 |  | 1.31 | 1.16 | 0.981 | 1.3 | 0.621 | 0.461
12 | NCI-H838 | 0.988 | 0.943 | 0.928 | 1.01 | 0.503 | 0.49 | 0.466 | 0.579 | 0.487 | 0.464 | 0.505 | 0.523 | 0.479 | 0.746 | 0.575 | 0.497 | 0.36 | 0.306 | 0.966 | 0.491
13 | NCI-H1355 | 0.775 | 0.834 | 0.65 | 0.902 | 0.433 | 0.477 | 0.481 | 0.499 | 0.419 | 0.394 | 0.446 | 0.445 | 0.44 | 0.693 | 0.608 | 0.558 | 0.408 | 0.295 | 0.769 | 0.407
14 | NCI-H1395 | 1.1 | 0.935 | 1.11 | 1.16 | 0.435 | 0.426 | 0.483 | 0.479 | 1.06 |  | 0.991 | 1.01 | 1.14 | 0.423 | 0.622 | 0.554 | 0.496 | 0.467 | 1.3 | 0.461
15 | NCI-H1437 | 0.852 | 0.876 | 0.932 | 1 | 0.311 | 0.298 | 0.317 | 0.311 | 0.504 | 0.472 | 0.473 | 0.662 | 0.568 | 0.865 | 0.836 | 0.802 | 0.68 | 0.552 | 0.93 | 0.286
16 | NCI-H1651 | 0.94 | 0.977 | 0.89 | 0.939 | 0.385 | 0.318 | 0.357 | 0.345 | 0.814 | 0.863 | 0.834 | 0.817 | 0.829 | 0.579 | 0.645 | 0.547 | 0.391 | 0.377 | 1.03 | 0.346
17 | NCI-H1666 | 0.899 | 0.867 | 0.999 | 1.05 | 0.56 | 0.587 | 0.557 | 0.483 | 0.878 | 0.873 | 0.83 | 0.838 | 0.781 | 1.09 | 0.977 | 0.969 | 0.922 | 0.87 | 1.01 | 0.599
18 | NCI-H1734 | 0.633 | 0.631 | 0.744 | 0.683 | 0.393 | 0.402 | 0.406 | 0.425 | 0.65 | 0.647 | 0.652 | 0.675 | 0.691 | 0.612 | 0.705 | 0.632 | 0.325 | 0.258 | 0.626 | 0.351
19 | NCI-H1755 | 0.893 | 0.911 | 0.883 | 0.923 | 0.615 | 0.663 | 0.639 | 0.688 | 0.728 | 0.785 | 0.749 | 0.741 | 0.746 | 0.758 | 0.77 | 0.71 | 0.619 | 0.477 | 0.915 | 0.592
20 | NCI-H1793 | 0.734 | 0.827 | 0.844 | 0.881 | 0.248 | 0.454 |  | 0.368 | 0.382 | 0.372 | 0.416 | 0.428 | 0.434 | 0.794 | 0.358 | 0.293 | 0.205 | 0.197 | 0.804 | 0.338
21 | NCI-H1915 | 1.01 | 0.977 | 0.986 | 1.08 | 0.339 | 0.345 | 0.375 | 0.354 | 0.294 | 0.303 | 0.236 | 0.266 | 0.301 | 0.556 | 0.487 | 0.531 | 0.402 | 0.453 | 1.1 | 0.38
22 | NCI-H1944 | 0.845 | 0.839 | 0.806 | 0.881 | 0.197 | 0.233 | 0.193 | 0.21 | 0.377 | 0.391 | 0.414 | 0.444 | 0.386 | 0.576 | 0.56 | 0.492 | 0.29 | 0.223 | 0.858 | 0.184
23 | NCI-H1975 | 0.578 | 0.651 | 0.651 | 0.654 | 0.348 | 0.419 | 0.405 | 0.429 | 0.351 | 0.315 | 0.377 | 0.356 | 0.332 | 0.788 | 0.622 | 0.575 | 0.429 | 0.266 | 0.689 | 0.402
24 | NCI-H1993 | 0.544 | 0.753 | 0.741 | 0.608 | 0.472 | 0.546 | 0.56 | 0.478 | 0.463 | 0.533 | 0.45 | 0.575 | 0.469 | 0.849 | 0.54 | 0.537 | 0.481 | 0.284 | 0.729 | 0.426
25 | NCI-H2009 | 1.07 | 1.12 | 1.1 | 1.13 | 0.387 | 0.468 | 0.506 | 0.442 | 0.247 | 0.262 | 0.233 | 0.276 | 0.287 | 0.746 | 0.719 | 0.704 | 0.568 | 0.202 | 1.11 | 0.486
26 | NCI-H2023 | 0.561 | 0.588 | 0.491 | 0.533 | 0.379 | 0.405 | 0.442 | 0.31 | 0.576 | 0.548 | 0.525 | 0.682 | 0.569 | 0.305 | 0.479 | 0.439 | 0.098 | 0.11 | 0.618 | 0.449
27 | NCI-H2085 | 0.825 | 0.884 | 1.01 | 1.01 | 0.68 | 0.664 | 0.677 | 0.694 | 0.49 | 0.477 | 0.52 | 0.571 | 0.591 | 0.801 | 0.742 | 0.712 | 0.363 | 0.329 | 0.905 | 0.613
